We go through twelve compounds from PMC9511823 (Bioorganic & medicinal chemistry letters, 2020).

pKi: −log10 of the molar value. Where two headings read alike, the source gives them in different places.

One test concerns the target MtbIMPDH (Mycobacterium tuberculosis, UniProt P9WKI7). In words: MtbIMPDH inhibition. It is filed as biochemical.
The target of test [1] is T1, CpIMPDH (Cryptosporidium parvum, UniProt Q8T6T2).
T1 sequence (Q8T6T2 1-400): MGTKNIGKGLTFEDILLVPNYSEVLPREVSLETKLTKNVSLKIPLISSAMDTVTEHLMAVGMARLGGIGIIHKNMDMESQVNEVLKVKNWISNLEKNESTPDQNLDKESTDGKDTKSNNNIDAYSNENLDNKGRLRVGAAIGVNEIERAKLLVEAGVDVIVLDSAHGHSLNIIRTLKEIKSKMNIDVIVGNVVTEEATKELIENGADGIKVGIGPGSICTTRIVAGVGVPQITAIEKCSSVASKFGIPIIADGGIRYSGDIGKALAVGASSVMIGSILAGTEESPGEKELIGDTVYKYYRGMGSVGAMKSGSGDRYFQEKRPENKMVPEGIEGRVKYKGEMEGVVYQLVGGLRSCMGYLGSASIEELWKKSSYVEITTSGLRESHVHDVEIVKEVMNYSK
As to the kind of experiment: biochemical. The class given is biochemical. The following applies: for CpIMPDH inhibition, result in words: relative to parent anilide.

The target in a further test is HsIMPDH2 (Homo sapiens, UniProt P12268). In words: HsIMPDH2 enzyme inhibition. The class given is biochemical.
For the next test, the target named is HsIMPDH1. The following applies: read-out: HsIMPDH1 Ki; cited from earlier work.
Test [2] deals with T1, CpIMPDH. The note with it: read-out: CpIMPDH Ki; cited from earlier work.
Where [3] appears, read: ratio of Ki,app of the two enantiomers.

MtbIMPDH, sequence (P9WKI7 whole entry, looked up): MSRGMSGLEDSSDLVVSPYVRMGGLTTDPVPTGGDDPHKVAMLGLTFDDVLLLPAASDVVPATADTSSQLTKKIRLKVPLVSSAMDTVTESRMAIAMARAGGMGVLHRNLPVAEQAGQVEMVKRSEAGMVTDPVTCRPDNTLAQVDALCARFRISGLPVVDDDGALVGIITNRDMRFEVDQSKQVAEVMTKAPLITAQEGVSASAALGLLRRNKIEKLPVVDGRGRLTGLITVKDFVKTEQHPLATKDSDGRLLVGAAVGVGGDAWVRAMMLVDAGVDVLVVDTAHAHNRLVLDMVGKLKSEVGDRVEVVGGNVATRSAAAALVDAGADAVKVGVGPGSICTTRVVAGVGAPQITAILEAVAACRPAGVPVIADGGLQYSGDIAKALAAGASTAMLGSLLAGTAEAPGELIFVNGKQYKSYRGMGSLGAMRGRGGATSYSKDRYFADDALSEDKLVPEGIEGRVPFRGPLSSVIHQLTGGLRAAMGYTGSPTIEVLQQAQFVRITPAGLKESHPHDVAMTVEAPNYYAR

As usually defined, the pKi is the Ki on a negative log10 scale, so that one unit is a factor of ten. At MtbIMPDH, `COc1c(C)c2c(c(O)c1C/C=C(\C)CCC(=O)Nc1ccc(Cl)c(C(F)(F)F)c1)C(=O)OC2` [Compound 10] gave a pKi of 7.22.

For the compound `COc1c(C)c2c(c(O)c1C/C=C(\C)CCC(=O)Nc1cccc(Cl)c1Cl)C(=O)OC2` [Compound 11], the “CpIMPDH inhibition, result in words” value on CpIMPDH [1] is “loss of CpIMPDH inhibitory activity”. Turning to `COc1c(C)c2c(c(O)c1C/C=C(\C)CCC(=O)Nc1ccc(F)cc1)C(=O)OC2` [Compound 13], the pKi at CpIMPDH [1] was 6.74. The same measure, in the same setting: then `COc1c(C)c2c(c(O)c1C/C=C(\C)CCC(=O)Nc1ccc(C(F)(F)F)cc1)C(=O)OC2` [Compound 14], with 6.82. For `COc1c(C)c2c(c(O)c1C/C=C(\C)CCC(=O)N(C)c1ccc(Cl)cc1)C(=O)OC2` [Compound 16], the “CpIMPDH inhibition, result in words” value at CpIMPDH [1] is listed as “loss of activity”. Turning to `COc1c(C)c2c(c(O)c1C[C@H]1C[C@]1(C)CCC(=O)Nc1ccc(Cl)c(C(F)(F)F)c1)C(=O)OC2` [Compound 31a], the values for the negative logarithm of the Ki (pKi) on CpIMPDH [1] and on HsIMPDH2 were 6.24 and 5.85, respectively.

For `COc1c(C)c2c(c(O)c1C[C@@H]1C[C@@]1(C)CCC(=O)Nc1ccc(Cl)c(C(F)(F)F)c1)C(=O)OC2` [Compound 31b], the negative logarithm of the Ki (pKi) on CpIMPDH [1] was 7.18; on HsIMPDH2, 6.34. Also, the “eudysmic ratio of 31b and 31a for CpIMPDH inhibition” value at CpIMPDH [1] (setting [3]) turned out to be 8.6. The “eudysmic ratio of 31b and 31a for HsIMPDH inhibition” value at HsIMPDH2 (setting [3]) stood at 3.1. `COc1c(C)c2c(c(O)c1CCOCC(=O)Nc1ccc(Cl)cc1)C(=O)OC2` [Compound 38]: the pKi was 6.39 on CpIMPDH [1] and 6.06 on HsIMPDH2. In the same order, the values of `COc1c(C)c2c(c(O)c1C/C=C/C(=O)Nc1ccc(Cl)cc1)C(=O)OC2` [Compound 42a] are 6.32 and 6.26.

For `COc1c(C)c2c(c(O)c1CCCC(=O)Nc1ccc(Cl)cc1)C(=O)OC2` [Compound 42b], the negative-log Ki (pKi) on CpIMPDH [1] was 6.35; on HsIMPDH2, 6.54.

Regarding `COc1c(C)c2c(c(O)c1CC(=O)Nc1ccc(Cl)cc1)C(=O)OC2` [Compound 44], the negative logarithm of the Ki (pKi) on CpIMPDH [1] was 5.55; at HsIMPDH2 it was 6.10.

Consider `COc1c(C)c2c(c(O)c1C/C=C(\C)CCC(=O)O)C(=O)OC2` [MPA, Mycophenolic acid], for which the pKi at HsIMPDH1 is 7.48; on CpIMPDH [2], 5.03.
